Measured values published in patent publication US6090834A, “Substituted oxazoles for the treatment of inflammation” (G.D. Searle & Co., priority 1998, dated 2000).

Key:
[1] = test system: carrageenan foot edema; assay: Rat Carrageenan Foot Pad Edema Test; type: in vivo, Male Sprague-Dawley rats; conditions: oral, 3 h after carrageenan; for inhibition in vivo at 10 mg/kg: Rattus norvegicus, 10 mg/kg body weight, read-out: RAT PAW EDEMA % Inhibition @ 10 mg/kg body weight
Description: Rat Carrageenan Foot Pad Edema Test
Male Sprague-Dawley rats were selected in each group so that the average body weight was as close as possible. Rats were fasted with free access to water for over sixteen hours prior to the test. […] One hour later a subplantar injection of 0.1 mL of 1% solution of carrageenan/sterile 0.9% saline was administered and the volume of the injected foot was measured with a displacement plethysmometer connected to a pressure transducer with a digital indicator. Three hours after the injection of the carrageenan, the volume of the foot was again measured.

[2] = test system: COX-1; assay: COX-1 activity in vitro (PGE2 formed, ELISA); type: biochemical, human or murine; conditions: recombinant enzyme, arachidonic acid 10 μM, pH 8.0; read-out: COX-1 ID50
Description: (§1) Evaluation of COX I and COX II activity in vitro
(§2) The COX-2 inhibition activity of the compounds of this invention illustrated in the Examples was determined by the following methods. a. Preparation of recombinant COX baculoviruses
(§3) Recombinant COX-1 and COX-2 were prepared as described by Gierse et al, [J. Biochem., 305, 479-84 (1995)]. A 2.0 kb fragment containing the coding region of either human or murine COX-1 or human or murine COX-2 was cloned into a BamH1 site of the baculovirus transfer vector pVL1393 (Invitrogen) to generate the baculovirus transfer vectors for COX-1 and COX-2 in a manner similar to the method of D. R. O'Reilly et al (Baculovirus Expression Vectors: A Laboratory Manual (1992)). Recombinant baculoviruses were isolated by transfecting 4 μg of baculovirus transfer vector DNA into SF9 insect cells (2×10^8) along with 200 ng of linearized baculovirus plasmid DNA by the calcium phosphate method. See M. D. Summers and G. E. Smith, A Manual of Methods for Baculovirus vectors and Insect Cell Culture Procedures, Texas Agric. Exp. Station Bull. 1555 (1987). Recombinant viruses were purified by three rounds of plaque purification and high titer (10^7 -10^8 pfu/ml) stocks of virus were prepared. For large scale production, SF9 insect cells were infected in 10 liter fermentors (0.5×10^6 /ml) with the recombinant baculovirus stock such that the multiplicity of infection was 0.1. After 72 hours the cells were centrifuged and the cell pellet homogenized in Tris/Sucrose (50 mM: 25%, pH 8.0) containing 1% 3-[(3-cholamidopropyl)dimethylammonio]-1-propanesulfonate (CHAPS). The homogenate was centrifuged at 10,000×G for 30 minutes, and the resultant supernatant was stored at -80° C. before being assayed for COX activity. […]
(§4) b. Assay for COX-1 and COX-2 activity
(§5) COX activity was assayed as PGE2 formed/μg protein/time using an ELISA to detect the prostaglandin released. CHAPS-solubilized insect cell membranes containing the appropriate COX enzyme were incubated in a potassium phosphate buffer (50 mM, pH 8.0) containing epinephrine, phenol, and heme with the addition of arachidonic acid (10 μM). Compounds were pre-incubated with the enzyme for 10-20 minutes prior to the addition of arachidonic acid. Any reaction between the arachidonic acid and the enzyme was stopped after ten minutes at 37° C./room temperature by transferring 40 μl of reaction mix into 160 μl ELISA buffer and 25 μM indomethacin. The PGE2 formed was measured by standard ELISA technology (Cayman Chemical).

[3] = test system: COX-2; assay: COX-2 activity in vitro (PGE2 formed, ELISA); type: biochemical, human or murine; conditions: recombinant enzyme, arachidonic acid 10 μM, pH 8.0; read-out: COX II ID50
Description: as §1, §2, §3, §4, §5

[4] = test system: hyperalgesic foot withdrawal; assay: Rat Carrageenan-induced Analgesia Test; type: in vivo, Male Sprague-Dawley rats; conditions: oral, hyperalgesic foot withdrawal 3 h after carrageenan
Description: Rat Carrageenan-induced Analgesia Test
The analgesia test using rat carrageenan was performed with materials, reagents and procedures essentially as described by Hargreaves, et al., (Pain, 32, 77 (1988)). Male Sprague-Dawley rats were treated as previously described for the Carrageenan Foot Pad Edema test. Three hours after the injection of the carrageenan, the rats were placed in a special plexiglass container with a transparent floor having a high intensity lamp as a radiant heat source, positionable under the floor. After an initial twenty minute period, thermal stimulation was begun on either the injected foot or on the contralateral uninjected foot. A photoelectric cell turned off the lamp and timer when light was interrupted by paw withdrawal. The time until the rat withdraws its foot was then measured. The withdrawal latency in seconds was determined for the control and drug-treated groups, and percent inhibition of the hyperalgesic foot withdrawal determined.

IC50 [2] | IC50 [3] | SMILES | inhibition in vivo at 10 mg/kg [1] | further results
– | – | CS(=O)(=O)c1ccc(-c2oc(CC(=O)O)nc2-c2ccc(F)cc2)cc1 [Example 16, 2-[4-(4-Fluorophenyl)-5-[4-(methylsulfonyl)phenyl]oxazol-2-yl]acetic acid] | 26% | –
> 100 µM | < 0.1 µM | COc1ccc(-c2oc(C(F)(F)F)nc2-c2ccc(S(C)(=O)=O)cc2)cc1F [Example 70, 5-(3-fluoro-4-methoxyphenyl)-4-(4-methylsulfonylphenyl)-2-trifluoromethyloxazole] | – | RAT PAW EDEMA % Inhibition (1 @ 30 mg/kg body weight) [1]: 46%
> 10 µM | < 0.1 µM | CS(=O)(=O)c1ccc(-c2oc(-c3ccccc3)nc2-c2ccc(F)cc2)cc1 [Example 3, 4-(4-Fluorophenyl)-5-[4-(methylsulfonyl)phenyl]-2-phenyloxazole] | 30% | –
> 100 µM | < 0.1 µM | CS(=O)(=O)c1ccc(-c2oc(COc3cccc(Cl)c3)nc2-c2ccc(F)cc2)cc1 [Example 30, 4-(4-fluorophenyl)-5-[4-(methylsulfonyl)phenyl]-2-(3-chlorophenoxy)methyloxazole] | 4% | –
– | – | CCOC(=O)Cc1nc(-c2ccc(F)cc2)c(-c2ccc(S(C)(=O)=O)cc2)o1 [Example 11] | 42% | –
– | – | CC(C)(C)c1nc(-c2ccc(F)cc2)c(-c2ccc(S(C)(=O)=O)cc2)o1 [Example 7, 2-(Tert-butyl)-4-(4-fluorophenyl)-5-[4-(methylsulfonyl)phenyl]oxazole] | 24% | –
9.7 µM | < 0.1 µM | COc1nc(-c2ccccc2)c(-c2ccc(S(N)(=O)=O)cc2)o1 [Example 55, 4-[2-methoxy-4-phenyl-5-oxazolyl]benzenesulfonamide] | – | RAT PAW EDEMA % Inhibition (1 @ 30 mg/kg body weight) [1]: 37%
– | – | CS(=O)(=O)c1ccc(-c2oc(C(c3ccccc3)c3ccccc3)nc2-c2ccc(F)cc2)cc1 [Example 10, 2-Diphenylmethyl-4-(4-fluorophenyl)-5-[4-methylsulfonylphenyloxazole]] | 18% | –
– | – | CS(=O)(=O)c1ccc(-c2oc(COc3ccccc3)nc2-c2ccc(F)cc2)cc1 [Example 28, 4-(4-fluorophenyl)-5-[4-(methylsulfonyl)-phenyl]-2-phenoxymethyloxazole] | 2% | –
– | – | COc1ccc(Cc2nc(-c3ccc(F)cc3)c(-c3ccc(S(C)(=O)=O)cc3)o2)cc1 [Example 8, 4-(4-Fluorophenyl)-2-(4-methoxyphenyl)methyl-5-[4-methylsulfonylphenyl]oxazole] | 12% | –
> 100 µM | < 0.1 µM | CS(=O)(=O)c1ccc(-c2oc(COc3ccc(F)cc3)nc2-c2ccc(F)cc2)cc1 [Example 31, 4-(4-fluorophenyl)-5-[4-(methylsulfonyl)-phenyl]-2-[(4-fluorophenoxy)methyl]oxazole] | 5% | –
> 10 µM | 0.5 µM | CS(=O)(=O)c1ccc(-c2oc(-c3ccccc3)nc2C2CCCCC2)cc1 [Example 25, 4-(cyclohexyl)-5-[4-(methylsulfonyl)phenyl]-2-phenyloxazole] | – | –

SMILES | IC50 [2] | IC50 [3] | inhibition in vivo at 10 mg/kg [1] | further results
CS(=O)(=O)c1ccc(-c2oc(CCc3ccccc3)nc2-c2ccc(F)cc2)cc1 [Example 1, 4-(4-fluorophenyl)-2-(2-phenylethyl)-5-(4-(methylsulfonyl)phenyl)oxazole] | 6.9 µM | < 0.1 µM | – | ANALGESIA % Inhibition @ 20 mg/kg body weight [4]: 44%; RAT PAW EDEMA % Inhibition (* @ 20 mg/kg body weight) ([1]; 20 mg/kg body weight): 41%
